In patent US7419683B2, “Method of inhibiting side effects of pharmaceutical compositions containing amphiphilic vehicles or drug carrier molecules” (United States of America as Represented by the Secretary of …, priority 1998, dated 2008):

Legend:
[1] = system: SC5b-9; assay: In vitro complement activation in human serum, SC5b-9 ELISA; assay type: biochemical; conditions: for C activation (serum SC5b-9), result in words: human sera, Table 1
Experimental: Non-anticoagulated blood was drawn from healthy volunteers and from cancer patients according to protocols approved, as additions to existing protocols, by the Walter Reed Army Medical Center Human Use Committee, and by the University of Southern California (USC)/Norris Cancer Center Institutional Review Board and General Clinical Research Center. […] Blood was allowed to clot at room temperature and the serum was stored at −80° C. It was thawed and kept at 4° C. before incubation with the test agents.
To assess C activation in vitro we measured the drug-induced rise of two C split products, SC5b-9 and Bb, using ELISA kits from Quidel Corp. (San Diego, Calif.). SC5b-9 is the soluble, S-protein-bound form of the terminal complex, a sensitive measure of C5a formation through both the classical and the alternative pathways, while Bb is the proteolytically active fragment of factor B, a specific marker of C activation through the alternative pathway. The test agents were incubated with the serum in a shaking water bath (80 rpm cycle) for 30 to 60 min at 37° C. at an activator to serum volume ratio of 1:5 or 1:10. […] The reaction was stopped by adding 20 volume of the specimen diluent from the ELISA kits containing PBS, 0.05% Tween-20, protein stabilizers, and 0.01% Thimerosal.

[2] = system: Cremophor EL-induced complement activation; assay: Inhibition of Cremophor EL-induced complement activation (SC5b-9) in human serum; assay type: biochemical; conditions: Cremophor EL 8.8 mg/ml, serum of a healthy subject
Experimental: FIG. 4. Inhibition of Cremophor EL-induced complement activation by soluble complement receptor type 1 (sCR1): dose activity relationship. […] Serum levels of SC5b-9 were measured by enzyme-linked immunoasorbent assay, as described. Bars=mean values with 95% confidence interval, obtained from triplicate wells. The rise of SC5b-9 relative to PBS was statistically significant at *, P=0.0006 and **, P=0.002 (Student's two-sample t test, two-tailed).
To assess C activation in vitro we measured the drug-induced rise of two C split products, SC5b-9 and Bb, using ELISA kits from Quidel Corp. (San Diego, Calif.). SC5b-9 is the soluble, S-protein-bound form of the terminal complex, a sensitive measure of C5a formation through both the classical and the alternative pathways, while Bb is the proteolytically active fragment of factor B, a specific marker of C activation through the alternative pathway. The test agents were incubated with the serum in a shaking water bath (80 rpm cycle) for 30 to 60 min at 37° C. at an activator to serum volume ratio of 1:5 or 1:10. Typically, 5 μl of drug (stock) was added to 45 μl of serum placed in Eppendorf tubes. The reaction was stopped by adding 20 volume of the specimen diluent from the ELISA kits containing PBS, 0.05% Tween-20, protein stabilizers, and 0.01% Thimerosal.

[3] = pigs; cited from earlier work
[4] = system: C-mediated harmful effects; conditions: in vitro; cited from earlier work
[5] = system: liposome-induced pulmonary hypertension; assay: Inhibition of liposome-induced pulmonary hypertension (PAP) in pigs; assay type: in vivo, pig
Experimental: FIG. 12. The effects of complement inhibitors and indomethacin on liposome-induced pulmonary hypertension. Panel A presents the standard liposome-induced changes in PAP before and at different times after the administration of the indicated inhibitors, each in a different animal. […] Inhibitors were injected in the jugular vein in 4-8 mL PBS, at the following doses: GS1, 1.6 mg/kg (squares), sCR1, 0.2 mg/kg (open circles) and 2 mg/kg (closed circles); indomethacin, 5 mg/kg (triangles).
Experiments were-performed in accordance with the guidelines of the Committee on Animal Care of the Uniformed Services University of the Health Sciences and with the Guide for the Care and the Use of Laboratory Animals (Department of Health and Human Services, Publication No. [NIH] 86-23). Female Yorkshire swine (32-48 kg) were sedated with i.m. ketamine and anesthetized with halothane by nose cone. The trachea was intubated and anesthesia was maintained with halothane (1%). […] Systemic vascular resistance (SVR) and pulmonary vascular resistance (PVR) were calculated from SAP, PAP, CO, CVP and LVEDP, using standard formulas (Fontana, J. L. et al., 1995, Anesth. Analg. 80, 219) Blood pressure values and leads II and V5 of the electrocardiogram (ECG) were obtained continually.

[6] = system: LEH-induced complement activation; conditions: human serum, in vitro, cited from earlier work
[7] = system: miniature pigs; conditions: previous study; cited from earlier work

## CC(=O)O[C@H]1C(=O)[C@@]2(C)[C@H]([C@H](OC(=O)c3ccccc3)[C@]3(O)C[C@H](OC(=O)[C@H](O)[C@@H](NC(=O)c4ccccc4)c4ccccc4)C(C)=C1C3(C)C)[C@]1(OC(C)=O)CO[C@@H]1C[C@@H]2O [Paclitaxel, paclitaxel]
[1]; paclitaxel 100 ug/mL, bar marked * in FIG. 2 (with 95% confidence interval)
  SC5b-9: 67.4 (65.8-69) ug/ml

## sCR1: Recombinant soluble complement receptor type 1
[2]
  dose providing complete suppression of Cremophor EL/ethanol-induced increase of SC5b-9: 1.8 µg/mL
  doses significantly inhibiting Cremophor EL/ethanol-induced increase of SC5b-9: > 0.6 µg/mL
[3]
  plasma clearance α-phase t1/2: 8.3 min
  plasma clearance β-phase t1/2: 6.05 h
  share of the drug clearing slowly: 31%
[4]
  concentration range of potent inhibition of C-mediated harmful effects: 10 to 40 µg/mL
[5]; 0.2 and 2 mg/kg i.v. (in 2-2 pigs), maximal inhibition
  inhibition of PAP response to 5 mg liposome boluses: 30-100%
[6]; LEH-induced
  dose providing complete suppression of SC5b-9 formation: 20 µg/mL
[6]
  doses significantly inhibiting LEH-induced complement activation: > 0.8 µg/mL

## COc1ccc2c(c1)c(CC(=O)O)c(C)n2C(=O)c1ccc(Cl)cc1 [indomethacin]
[7]
  rise of PVR after liposomes with indomethacin treatment: 20%
[5]; 5 mg/kg i.v., all tested pigs
  effect on pulmonary reaction to 5 mg liposome boluses: completely suppressed

## CC(=O)O[C@@]12CO[C@@H]1C[C@H](O)[C@@]1(C)C(=O)[C@H](O)C3=C(C)[C@@H](OC(=O)[C@H](O)[C@@H](NC(=O)OC(C)(C)C)c4ccccc4)C[C@@](O)([C@@H](OC(=O)c4ccccc4)[C@H]21)C3(C)C [docetaxel]
[1]
  C activation (serum SC5b-9), result in words: caused C activation only when the drug (formulated in Tween-80) was added to human serum together with ethanol
[1]; subject 1 (healthy donor), dose 100 μg/ml (H2O), 30 min 37° C.
  SC5b-9: 1.8 µg/mL
[1]; subject 1 (healthy donor), dose 100 μg/ml with 0.8% ethanol, 30 min 37° C.
  SC5b-9: 16.0 µg/mL
[1]; subject 2 (healthy donor), dose 100 μg/ml with 0.8% ethanol
  SC5b-9: 28.6 µg/mL
[1]; subject 3 (healthy donor), dose 100 μg/ml (H2O)
  SC5b-9: 0.2 µg/mL
[1]; subject 4 (cancer patient), dose 100 μg/ml with 0.8% ethanol
  SC5b-9: 38.5 µg/mL

## N.N.O=C([O-])C1(C(=O)[O-])CCC1.[Pt+2] [carboplatin]
[1]
  C activation (serum SC5b-9), result in words: did not cause C activation
[1]; subject 2 (healthy donor), dose 100 μg/ml, no ethanol
  SC5b-9: 3.4 µg/mL
[1]; subject 4 (cancer patient), dose 100 μg/ml, no ethanol
  SC5b-9: 5.5 µg/mL

## CCO [ethanol]
[1]
  C activation (serum SC5b-9), result in words: did not cause significant elevation of serum SC5b-9
[1]; subject 2 (healthy donor), dose 0.8% (final serum concentration)
  SC5b-9: 3.2 µg/mL
[1]; subject 3 (healthy donor), dose 0.4% (final serum concentration)
  SC5b-9: 0.5 µg/mL
[1]; subject 4 (cancer patient), dose 0.8% (final serum concentration)
  SC5b-9: 6.6 µg/mL
